Test results reported in patent US20230416786A1, “USE OF AMINOQUINOLINE COMPOUNDS FOR HIGHER GENE INTEGRATION” (CELLECTIS SA, priority 2020, published 2023).
Where a name gives a salt, the structure may show the parent alone. Read-outs that look alike come from different tables or passages of the source.

Columns and labels:
primary T-cells = conditions: Example 3, FIG. 3, TRAC TALEN + AAV-CAR-MESO, without chloroquine 29%
Text: (§1) The targeted sequences are […]gctcgcgctactc[…]

HSCs = test: Targeted integration of HLA-E repair template at the B2M locus in HSCs (B2M TALEN + AAV-HLA-E, flow cytometry of HLA-E positive cells); format: cell-based, human
Text: as §1
For HSCs, AAV-HLA-E particles was thawed on ice and aliquot to transduce each of the HSC samples at 10^4 viral genome per cell (vg/cell).

CCN(CC)CCCC(C)Nc1ccnc2cc(Cl)ccc12 (centres unmarked) [chloroquine, N4-(7-chloroquinolin-4-yl)-N1,N1-diethylpentane-1,4-diamine diphosphate]
CAR positive cells (nuclease-induced targeted integration at TRAC locus) (primary T-cells; chloroquine 0.05 mM): 35%
CAR positive cells (nuclease-induced targeted integration at TRAC locus) (primary T-cells; second chloroquine concentration (0.1 mM per first sentence)): 33.8%
HLA-E expression (reflects targeted integration at the B2M locus) (HSCs; Example 2, FIG. 2, B2M TALEN with HLA-E repair matrix, chloroquine 0.1 mM, without chloroquine 23.4%): ~38%
optimum CQ dose for HLA-E positive cells (HSCs; Example 4, FIG. 4, B2M TALEN + AAV-HLA-E): 0.02 nM
percentage of HLA-E positive cells (HSCs; Example 6, FIG. 6E, B2M TALEN + i53 mRNAs (inhibition of 53BP1) + AAV-HLA-E combined with chloroquine 0.02 mM, control 31.5%): 63.6%
percentage of HLA-E positive cells (HSCs; Example 6, FIGS. 6B and 6C, B2M TALEN + AAV-HLA-E, without 53BP1 inhibition, chloroquine 0.02 mM, without any compound 31.5%): 53.4%

CCN(CCO)CCCC(C)Nc1ccnc2cc(Cl)ccc12 (centres unmarked) [hydroxychloroquine, 7-Chloro-4-[4-(N-ethyl-N-b-hydroxyethylamino)-1-methylbutylamino]quinoline sulfate]
percentage of HLA-E positive cells (HSCs; Example 5, FIG. 5, B2M TALEN + AAV-HLA-E, compound 0.02 mM, without any compound 33.3%): 43.4%

i53: mRNAs encoding i53 (SEQ ID NO. 40), a 53BP1 inhibitor, co-electroporated with B2M TALEN
percentage of HLA-E positive cells (HSCs; Example 6, FIGS. 6B and 6D, B2M TALEN + 4 μg/million cells mRNAs encoding i53 + AAV-HLA-E, without chloroquine, control 31.5%): 39.9%
